“And” between values parts separate entries of the source, which are not always exact repeats. Equal entries are not always repeated.
Tests used:
[1] = tested on: LINE-1 DNA methylation in HL-60; assay: LINE-1 pyrosequencing; assay type: cell-based, human
Description: (§1) DNA methylation of the repetitive element LINE-1 was analyzed using a pyrosequencing technique. […] Cells were washed twice with PBS, and then genomic DNA was extracted using a DNA Kit (Nucleo Spin Tissue, Cat No 74095250, Macherey-Nagel) following the manufacturer's instructions. DNA purity and concentration were measured using a NanoDrop spectrophotometer (Thermo Scientific). A 1 μg amount of genomic DNA was treated and modified using a CpGenome DNA modification Kit (Cat No S7820, Chemicon International) following the manufacturer's instructions. […] [NT]) in a final volume of 25 μL. The resulting biotinylated PCR products were immobilized to Streptavidin Sepharose ® High-Performance beads (GE Healthcare) and processed to yield high-quality ssDNA using the PyroMark Vacuum Prep Workstation (Biotage) according to the manufacturer's instructions. The pyrosequencing reactions were performed using the PyromarkTM ID (Biotage), and sequence analysis was performed using the PyroQ-CpG analysis software (Biotage).

[2] = tested on: LINE-1 DNA methylation in MV4-11; assay: LINE-1 pyrosequencing; assay type: cell-based, human
Description: as §1

[3] = tested on: LINE-1 DNA methylation in MOLM-13; assay: LINE-1 pyrosequencing; assay type: cell-based, human
Description: as §1

[4] = tested on: HL-60 cells in BALB/cA Rag2-/-γc-/- mice; assay: Subcutaneous implant of in vitro pretreated cells, tumor volume; assay type: in vivo, mouse; set-up: key to Tumor volume: mm^3; V = D×d²/2 (D longest, d shortest diameter); conditions: for Tumor volume: HL-60 cells pretreated in vitro for 96 hours with 270 nM of CM-444 or 300 nM of CM-1758, injected subcutaneously, individual mice
Description: (§2) The human AML HL-60 and ML-2 cell lines were first pretreated in vitro daily with 270 and 260 nM of CM-444 or 300 and 210 nM of CM-1758, respectively, for 4 days. Prior to injection in mice, the cell differentiation induction by CM-444 and CM-1758 compounds was verified by measuring CD11b by flow cytometry, as described earlier. Then, 5 × 10^6 cells of cells, pretreated with CM-444, […], or vehicle (80% saline solution, 10% DMSO and 10% Tween 20) and diluted in 100 µL of saline solution, were implanted subcutaneously into the flank of female BALB/cA Rag2^−/−γc^−/− mice between 6 and 8 weeks of age (n = 8). Tumor size was analyzed every 2–3 days using the following method: […], where D and d corresponded to the longest and shortest diameter, respectively. The maximal tumor size/burden permitted by the Animal Care and Ethics Committee of the University of Navarra is 2000 mm^3. In some cases, this limit was reached on the last day of measurement and the mice were immediately euthanized.

[5] = tested on: ML-2 cells in BALB/cA Rag2-/-γc-/- mice; assay: as above; assay type: in vivo, mouse; set-up: key to Tumor volume: mm^3; V = D×d²/2 (D longest, d shortest diameter); conditions: for Tumor volume: ML-2 cells pretreated in vitro for 96 hours, injected subcutaneously, individual mice (Fig 3A)
Description: as §2

HDAC7 = biological target: T1, HDAC7 (Homo sapiens, UniProt Q8WUI4); assay: HDAC assay (Eurofins); assay type: biochemical
T1 construct: purchased Eurofins (contracted assay service)
T1 sequence (Q8WUI4 1-952): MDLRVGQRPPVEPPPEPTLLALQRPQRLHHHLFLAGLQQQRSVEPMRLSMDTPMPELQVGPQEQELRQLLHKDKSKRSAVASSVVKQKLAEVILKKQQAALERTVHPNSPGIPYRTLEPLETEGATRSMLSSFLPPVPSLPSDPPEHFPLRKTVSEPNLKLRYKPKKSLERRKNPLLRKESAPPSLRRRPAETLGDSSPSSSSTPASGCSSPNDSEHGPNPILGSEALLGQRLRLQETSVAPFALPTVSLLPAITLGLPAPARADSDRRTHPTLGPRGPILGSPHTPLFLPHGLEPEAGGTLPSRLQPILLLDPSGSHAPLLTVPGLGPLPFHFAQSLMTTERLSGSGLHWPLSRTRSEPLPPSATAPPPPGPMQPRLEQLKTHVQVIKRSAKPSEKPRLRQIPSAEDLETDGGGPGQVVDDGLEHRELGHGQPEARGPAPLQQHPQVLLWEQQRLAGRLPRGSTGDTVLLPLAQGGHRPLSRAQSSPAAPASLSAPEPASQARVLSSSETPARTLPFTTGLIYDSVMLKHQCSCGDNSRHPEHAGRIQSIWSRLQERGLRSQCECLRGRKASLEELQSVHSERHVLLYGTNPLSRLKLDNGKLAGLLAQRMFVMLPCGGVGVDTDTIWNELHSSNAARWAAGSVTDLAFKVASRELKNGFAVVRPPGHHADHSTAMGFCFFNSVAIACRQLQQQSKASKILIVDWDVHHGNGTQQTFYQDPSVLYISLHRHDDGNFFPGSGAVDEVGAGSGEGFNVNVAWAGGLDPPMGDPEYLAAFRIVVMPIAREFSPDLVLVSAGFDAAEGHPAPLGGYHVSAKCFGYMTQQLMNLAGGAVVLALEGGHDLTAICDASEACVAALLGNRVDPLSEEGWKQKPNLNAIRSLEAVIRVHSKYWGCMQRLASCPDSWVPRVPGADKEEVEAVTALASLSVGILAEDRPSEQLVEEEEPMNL

SMILES: COc1cc2nc(-c3ccc(C)o3)cc(NCC3CCN(c4ncc(C(=O)NO)cn4)CC3)c2cc1OC [CM-444, 2-[4-[[[6,7-dimethoxy-2-(5-methyl-2-furyl)-4-quinolyl]amino]methyl]-1-piperidyl]pyrimidine-5-carbohydroxamic acid]
- LINE-1 methylation (%) CG Position 1 ([1]; 48 h, 0.27 µM): 97%
- LINE-1 methylation (%) CG Position 2 ([1]; 48 h, 0.27 µM): 83%
- LINE-1 methylation (%) CG Position 3 ([1]; 48 h, 0.27 µM): 100%
- LINE-1 methylation (%) CG Position 4 ([1]; 48 h, 0.27 µM): 100%
- LINE-1 methylation (%) CG Position 5 ([1]; 48 h, 0.27 µM): 73%
- LINE-1 methylation (%) CG Position 1 Replicate 1 ([1]; HL-60, 48 h): 96%
- LINE-1 methylation (%) CG Position 1 Replicate 2 ([1]; HL-60, 48 h): 98%
- LINE-1 methylation (%) CG Position 2 Replicate 1 ([1]; HL-60, 48 h): 84%
- LINE-1 methylation (%) CG Position 2 Replicate 2 ([1]; HL-60, 48 h): 82%
- LINE-1 methylation (%) CG Position 3 Replicate 1 ([1]; HL-60, 48 h): 100%
- LINE-1 methylation (%) CG Position 3 Replicate 2 ([1]; HL-60, 48 h): 100%
- LINE-1 methylation (%) CG Position 4 Replicate 1 ([1]; HL-60, 48 h): 100%
- LINE-1 methylation (%) CG Position 4 Replicate 2 ([1]; HL-60, 48 h): 100%
- LINE-1 methylation (%) CG Position 5 Replicate 1 ([1]; HL-60, 48 h): 72%
- LINE-1 methylation (%) CG Position 5 Replicate 2 ([1]; HL-60, 48 h): 74%
- LINE-1 methylation (%) CG Position 1 ([1]; HL-60, 10 days): 77% and 81%
- LINE-1 methylation (%) CG Position 2 ([1]; HL-60, 10 days): 66% and 70%
- LINE-1 methylation (%) CG Position 3 ([1]; HL-60, 10 days): 71% and 75%
- LINE-1 methylation (%) CG Position 4 ([1]; HL-60, 10 days): 86% and 88%
- LINE-1 methylation (%) CG Position 5 ([1]; HL-60, 10 days): 65% and 63%
- LINE-1 methylation (%) CG Position 1 ([2]; MV4-11, 48 hours): 83% and 85%
- LINE-1 methylation (%) CG Position 2 ([2]; MV4-11, 48 hours): 79% and 77%
- LINE-1 methylation (%) CG Position 3 ([2]; MV4-11, 48 hours): 99% and 97%
- LINE-1 methylation (%) CG Position 4 ([2]; MV4-11, 48 hours): 100%
- LINE-1 methylation (%) CG Position 5 ([2]; MV4-11, 48 hours): 70% and 66%
- LINE-1 methylation (%) CG Position 1 ([2]; MV4-11, 5 days): 80% and 82%
- LINE-1 methylation (%) CG Position 2 ([2]; MV4-11, 5 days): 79% and 77%
- LINE-1 methylation (%) CG Position 3 ([2]; MV4-11, 5 days): 77%
- LINE-1 methylation (%) CG Position 4 ([2]; MV4-11, 5 days): 91% and 89%
- LINE-1 methylation (%) CG Position 5 ([2]; MV4-11, 5 days): 65% and 67%
- LINE-1 methylation (%) CG Position 1 ([3]; MOLM-13, 48 hours): 100%
- LINE-1 methylation (%) CG Position 2 ([3]; MOLM-13, 48 hours): 83% and 79%
- LINE-1 methylation (%) CG Position 3 ([3]; MOLM-13, 48 hours): 100%
- LINE-1 methylation (%) CG Position 4 ([3]; MOLM-13, 48 hours): 100%
- LINE-1 methylation (%) CG Position 5 ([3]; MOLM-13, 48 hours): 74% and 78%
- LINE-1 methylation (%) CG Position 1 ([3]; MOLM-13, 5 days): 62%
- LINE-1 methylation (%) CG Position 2 ([3]; MOLM-13, 5 days): 60% and 68%
- LINE-1 methylation (%) CG Position 3 ([3]; MOLM-13, 5 days): 69% and 73%
- LINE-1 methylation (%) CG Position 4 ([3]; MOLM-13, 5 days): 74% and 76%
- LINE-1 methylation (%) CG Position 5 ([3]; MOLM-13, 5 days): 53% and 55%
- tumor growth ([4]; HL-60 cells pretreated in vitro 4 days, s.c.): tumor growth was significantly slower
- Tumor volume ([4]; day 0, in mm³): 0
- Tumor volume ([4]; day 6): 0 (3×) and 15.188 and 103.406 and 17.053
- Tumor volume ([4]; day 8, in mm³): 74.6826 and 76.624 and 60.9783 and 227.696 and 55.1928 and 10.6605 and 0
- Tumor volume ([4]; day 10, in mm³): 208.487 and 290.654 and 187.094 and 596.573 and 195.686 and 84.5628 and 14.1488
- Tumor volume ([4]; day 13, in mm³): 1082.75 and 1016.65 and 1040.97 and 728.909 and 903.701 and 1085.29
- tumor growth ([5]; ML-2 cells pretreated in vitro 4 days, s.c.): tumor growth was significantly slower
- Tumor volume ([5]; day 0, in mm³): 0
- Tumor volume ([5]; day 5, in mm³): 0
- Tumor volume ([5]; day 7, in mm³): 0
- Tumor volume ([5]; day 9): 0 (5×) and 2.103 and 2.907 and 1.967
- Tumor volume ([5]; day 12): 0 (3×) and 15.5058 and 44.8074 and 14.292 and 43.7037 and 21.7346
- Tumor volume ([5]; day 14, in mm³): 56.0772 and 79.1967 and 185.795 and 76.3392 and 203.44 and 147.179 and 18.725 and 23.4078
- Tumor volume ([5]; day 16, in mm³): 136.524 and 233.533 and 382.095 and 345.104 and 527.015 and 508.257 and 54.687 and 46.2692
- IC50 (HDAC7): 120 nM
- inhibition at 10 µM (HDAC7; 10 µM): 89%

Source: article PMC11219871, “Epigenetic-based differentiation therapy for Acute Myeloid Leukemia” (Nature Communications, 2024)
